From patent publication US11739305B2, “Sialyltransferase variants having neosialidase activity” (The Regents of the University of California, priority 2017, dated 2023) come the findings set out here.

For the test, the target named is T1, Pd2,6ST S232L/T356S/W361F (Photobacterium damselae, UniProt O66375, S232L/T356S/W361F).
T1 construct: (Δ15Pd2, 6ST); His6 tag with thrombin site ([…]) (N); made in house; host or cells: E. coli BL21(DE3)
As to the kind of experiment: Linkage specificity assays (relative sialidase activity towards sialosides, HPLC). In kind it is biochemical. The following applies: for Relative sialidase activity: of Pd2,6ST S232L/T356S/W361F towards the sialoside, 1 mM substrate, 0.5 mM CMP, pH 6.0, 37° C., 30 minutes, relative to compound 2. As to the method:
Reactions were performed in duplicate at 37° C. for 30 minutes in MES buffer (100 mM, pH 6.0), MgCl2 (10 mM), CMP (0.5 mM), and 1 mM substrate. Enzyme concentrations were 0.030 μM for 2, 0.30 μM for 7, 3.0 μM 6, and 30.0 μM for 3-5. These conditions provided testing at initial rates (1.2-24% yield) for each substrate. Reactions were stopped by adding an equal volume of pre-chilled methanol. The mixtures were incubated on ice for 30 minutes and centrifuged at 13,000 rpm for 5 minutes. Supernatants were analyzed with an Infinity 1290-II HPLC equipped with a UV-Vis detector (Agilent Technologies, CA). The HPLC procedure utilized a ZORBAX Eclipse Plus C18 Rapid Resolution HD 1.8 μm particle 2.1×50 mm column (Agilent Technologies, CA), an isocratic flow of 1 mL min′ for a 9% acetonitrile and 91% aqueous solution containing 0.1% TFA, and an injection volume of 2 μL. The para-nitrophenyl absorbance signal was monitored at 315 nm.

The mark [1] stands for this setting: cleavage by Pd2,6ST S232L/T356S/W361F.

As to `CC(=O)N[C@H]1[C@H]([C@H](O)[C@H](O)CO)OC(O[C@H]2[C@@H](O)[C@@H](CO)O[C@@H](Oc3ccc([N+](=O)[O-])cc3)[C@@H]2O)(C(=O)O)C[C@@H]1O` (stereo partly shown) [Compound 3, Neu5Acα2-3GalβpNP], the Relative sialidase activity is 2.5 × 10^−3. The “activity lower than toward Neu5Acα2-6GalβpNP (2)” value under setting [1] is roughly 400 fold.

For `O=C(CO)NC1C(O)CC(OCC2OC(Oc3ccc([N+](=O)[O-])cc3)C(O)C(O)C2O)(C(=O)O)OC1C(O)C(O)CO` (stereo not shown) [Compound 6, Neu5Gcα2-6GalβpNP], the Relative sialidase activity is recorded as 1.2 × 10^−1. In addition, the “cleavage rate as percent of the rate of Neu5Acα2-6GalβpNP (2)” value under setting [1] is given as “approximately 12%”.

Compound `CC(=O)NC1C(Oc2ccc([N+](=O)[O-])cc2)OC(COC2(C(=O)O)CC(O)C(NC(C)=O)C(C(O)C(O)CO)O2)C(O)C1O` (stereo not shown) [Compound 7, Neu5Acα2-6GalNAcβpNP] registered a Relative sialidase activity of 1.9. Moreover, under setting [1], the “neosialidase activity toward the sialoside, in words” value is on record as “higher”.

For the compound `O=C(O)C1(OCC2OC(Oc3ccc([N+](=O)[O-])cc3)C(O)C(O)C2O)CC(O)C(O)C(C(O)C(O)CO)O1` (stereo not shown) [Compound 5, Kdnα2-6GalβpNP], the Relative sialidase activity is recorded as 9.8 × 10^−4. Also, under setting [1], the “cleavage rate as percent of the rate of Neu5Acα2-6GalβpNP (2)” value is given as 0.1% and the “neosialidase activity toward the sialoside, in words” value is given as “not a suitable substrate”.

On to `CC(=O)NC1C(O)CC(OC(CO)C(O)C2OC(OC3C(O)C(CO)OC(Oc4ccc([N+](=O)[O-])cc4)C3O)(C(=O)O)CC(O)C2NC(C)=O)(C(=O)O)OC1C(O)C(O)CO` (stereo not shown) [Compound 4, Neu5Acα2-8Neu5Acα2-3GalβpNP], for which the Relative sialidase activity is recorded as 3.3 × 10^−3. Moreover, the “neosialidase activity toward the sialoside, in words” value under setting [1] is “not detected”.

As for `CC(=O)N[C@H]1[C@H]([C@H](O)[C@H](O)CO)OC(OC[C@H]2O[C@@H](Oc3ccc([N+](=O)[O-])cc3)[C@H](O)[C@@H](O)[C@H]2O)(C(=O)O)C[C@@H]1O` (stereo partly shown) [Compound 2, Neu5Acα2-6GalβpNP], the Relative sialidase activity is recorded as 1.0. The “neosialidase activity toward the sialoside, in words” value under setting [1] is listed as “suitable substrate”.
